From PMC11436757, “BRCA2 stabilises RAD51 and DMC1 nucleoprotein filaments through a conserved interaction mode” (Nature Communications, 2024)

T1: DMC1 ΔN (Homo sapiens, UniProt Q14565)
T1 construct: DMC1 ΔN (83-340) were cloned into pHAT4; His6 (TEV-cleavable) (N, cleaved yes); made in house; host or cells: E. coli BL21 (DE3)
T1 sequence (Q14565 83-340): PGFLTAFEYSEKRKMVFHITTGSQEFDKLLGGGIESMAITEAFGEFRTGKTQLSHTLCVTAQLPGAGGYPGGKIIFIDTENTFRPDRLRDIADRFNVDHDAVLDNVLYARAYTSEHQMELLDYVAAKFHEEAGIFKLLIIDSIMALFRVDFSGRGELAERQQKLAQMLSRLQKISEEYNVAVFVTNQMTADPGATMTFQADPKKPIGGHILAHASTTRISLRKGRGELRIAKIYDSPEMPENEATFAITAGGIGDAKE

T2: DMC1 ΔN loop mutant (Homo sapiens, UniProt Q14565, A148D/A183D/D180S/D182S/G147I/G149R/G153E/H181G/N178G/P152G/V179L/Y151G)
T2 construct: DMC1 ΔN (83-340) were cloned into pHAT4; made in house
T2 sequence (Q14565 83-340 G147I/A148D/G149R/Y151G/P152G/G153E/N178G/V179L/D180S/H181G/D182S/A183D limits assumed): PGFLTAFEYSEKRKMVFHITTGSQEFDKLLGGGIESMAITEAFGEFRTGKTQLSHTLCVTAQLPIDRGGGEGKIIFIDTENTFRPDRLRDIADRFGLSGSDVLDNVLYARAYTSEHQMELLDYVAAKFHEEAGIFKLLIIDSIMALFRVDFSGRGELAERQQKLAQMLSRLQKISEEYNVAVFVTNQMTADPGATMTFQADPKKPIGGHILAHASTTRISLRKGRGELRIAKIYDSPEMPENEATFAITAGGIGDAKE

T3: DMC1;BRCA2 Ex14-Tr (Homo sapiens;Homo sapiens, UniProt Q14565;P51587 1-340;, |)
T3 sequence 1: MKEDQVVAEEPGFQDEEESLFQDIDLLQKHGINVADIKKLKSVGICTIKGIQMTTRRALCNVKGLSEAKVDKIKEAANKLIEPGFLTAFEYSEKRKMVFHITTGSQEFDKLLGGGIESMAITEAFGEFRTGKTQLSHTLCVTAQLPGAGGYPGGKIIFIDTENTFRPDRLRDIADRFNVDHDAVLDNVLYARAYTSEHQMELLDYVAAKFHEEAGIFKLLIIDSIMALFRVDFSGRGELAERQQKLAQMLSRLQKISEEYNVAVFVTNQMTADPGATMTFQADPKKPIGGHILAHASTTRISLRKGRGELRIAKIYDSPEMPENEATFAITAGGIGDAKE
T3 sequence 2: RPTKVFVPPFKTKS

T4: DMC1;BRCA2 Ex14 (Homo sapiens;Homo sapiens, UniProt Q14565;P51587 1-340;2387-2420, |)
T4 sequence 1: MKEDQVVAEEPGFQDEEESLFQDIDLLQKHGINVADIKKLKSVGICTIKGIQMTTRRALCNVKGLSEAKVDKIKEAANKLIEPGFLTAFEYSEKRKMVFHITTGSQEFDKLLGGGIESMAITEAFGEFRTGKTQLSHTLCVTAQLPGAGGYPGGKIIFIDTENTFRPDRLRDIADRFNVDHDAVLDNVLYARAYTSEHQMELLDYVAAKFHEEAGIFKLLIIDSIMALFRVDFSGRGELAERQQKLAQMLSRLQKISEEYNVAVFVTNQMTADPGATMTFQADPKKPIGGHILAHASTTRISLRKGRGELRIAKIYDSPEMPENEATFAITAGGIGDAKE
T4 sequence 2: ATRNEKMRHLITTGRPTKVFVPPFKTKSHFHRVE

T5: DMC1 (Homo sapiens, UniProt Q14565 1-340)
T5 sequence: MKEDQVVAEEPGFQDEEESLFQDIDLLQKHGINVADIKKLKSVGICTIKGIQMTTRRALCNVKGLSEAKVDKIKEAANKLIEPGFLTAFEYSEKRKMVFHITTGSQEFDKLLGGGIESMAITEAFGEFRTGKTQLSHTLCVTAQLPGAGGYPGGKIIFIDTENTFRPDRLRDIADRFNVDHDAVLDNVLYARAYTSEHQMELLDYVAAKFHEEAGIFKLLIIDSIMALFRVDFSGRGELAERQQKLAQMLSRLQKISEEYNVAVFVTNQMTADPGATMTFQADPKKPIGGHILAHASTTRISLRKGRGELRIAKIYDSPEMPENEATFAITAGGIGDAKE


Key:
[1] = test system: RAD51 L180E-ssDNA filaments; test: EMSA, BRC4-mediated disruption of RAD51 L180E-ssDNA filaments (random sequence ssDNA); assay type: biochemical; conditions: 100-nt random ssDNA
Description: (§1) To form nucleoprotein filaments, DMC1 and RAD51 was incubated with fluorescent 100-base ssDNA (5’-FAM- […]-3’) at the concentrations indicated in the figures for 30 minutes at 4 °C in reaction buffer. For DMC1, reaction buffer is 25 mM TEA (triethanolamine) pH 7.5, 1 mM ATP, 2 mM MgCl2, 0.1 mg/ml BSA, 2 mM DTT, 200 mM KCl. For RAD51, reaction buffer is 50 mM TEA (triethanolamine), 2 mM ATP, 0.5 mM MgCl2, 2 mM DTT. For assays requiring incomplete nucleoprotein filament assembly, the reaction buffer consisted of 50 mM TAE (tris, acetate, EDTA) pH 7.5, 2 mM ATP, 2 mM MgCl2, 2 mM DTT. In nucleoprotein formation stimulation assays or supershift experiments, BRCA2Ex14 or BRCA2Ex14-AAA were added for a further 30 min at 4 °C. […] Glycerol was added at a final concentration of 3%, and samples were analysed by electrophoresis on a 1% (w/v) (for DMC1) or 0.66% (w/v) (for RAD51) agarose gel in 0.5x TAE pH 8.0 at 20–40 V for ~4 h at 4 °C. DNA was detected by FAM using a Typhoon^TM FLA 9500 (GE Healthcare), with 473 nm laser at excitation wavelength 490 nm and emission wavelength 520 nm, using the LPB filter and a PMT voltage of 500 V. To analyse RAD51 nucleoprotein filaments assembled upon 100-base poly(dT) ssDNA, gels were stained post-run using SYBR^TM Gold Nucleic Acid Gel Stain (Invitrogen) and detected using a Typhoon^TM FLA 9500 (GE Healthcare).

DMC1 ΔN F85E = test: Amylose pull-down of His-DMC1 ΔN F85E (monomeric) with MBP-BRCA2 fusions; assay type: binding, human; conditions: lysates mixed; MBP-BRCA2 fusion; 20 mM Tris pH 8.0, 500 mM KCl, 2 mM DTT
Description: (§2) For affinity experiments involving DMC1 ΔN V179E and F85E, MBP-fusions of BRCA2 fragments (Ex14, amino-acids 2387-2420, Ex14-Tr, amino acids 2401-2414, BRC4, amino acids 1519-1551) were cloned into pMAT11 vectors and DMC1 ΔN mutants (V179E or F85E) were cloned into pHAT4 vectors. Lysates of bacterial cultures expressing His6-DMC1 mutants or MBP-BRCA2 constructs were mixed, and complexes were purified through amylose affinity chromatography in 20 mM Tris pH 8.0, 500 mM KCl, 2 mM DTT and eluted using 30 mM D-maltose.

DMC1 ΔN = molecular target: T1, DMC1 ΔN; test: Amylose pull-down of DMC1 ΔN with MBP-BRCA2 fusions; assay type: binding; conditions: recombinant co-expression with MBP-BRCA2 fusion
From the text: (§3) For affinity pulldown experiments, MBP-fusions of BRCA2 fragments (Ex14, amino-acids 2387-2420, Ex14-Tr, amino acids 2401-2414, Ex27, amino acids 3270-3315, BRC4, amino acids 1519-1551) were cloned into pMAT11 vectors[54] and co-expressed with DMC1 ΔN, DMC1 ΔN loop mutant (in which DMC1 amino acids 147-GAGGYPG-153 and 178-NVDHDA-183 were replaced by the cognate sequences of RAD51 148-IDRGGGE-154 and 179-GLSGSD-184), RAD51 ΔN, RAD51 ΔN loop mutant (the reverse switch of DMC1 ΔN loop mutant), and RAD51. MBP-fusions and complexes were purified through amylose affinity chromatography.

DMC1 ΔN loop mutant = molecular target: T2, DMC1 ΔN loop mutant; test: Amylose pull-down of DMC1 ΔN loop mutant with MBP-BRCA2 fusions; assay type: binding; conditions: recombinant co-expression with MBP-BRCA2 fusion
From the text: as §3

RAD51-ssDNA filaments [2] = test: EMSA, BRC4-mediated disruption of RAD51-ssDNA filaments (random sequence ssDNA); assay type: biochemical; conditions: 100-nt random ssDNA; equimolar BRC4
Description: as §1

DMC1 ΔN V179E = test: Amylose pull-down of His-DMC1 ΔN V179E with MBP-BRCA2 fusions; assay type: binding, human; conditions: lysates mixed; MBP-BRCA2 fusion; 20 mM Tris pH 8.0, 500 mM KCl, 2 mM DTT
Description: as §2

DMC1-ssDNA filaments = test: EMSA, BRC4-mediated disruption of DMC1-ssDNA filaments; assay type: biochemical, human; conditions: TEA pH 7.5 + KCl; stoichiometric excess of BRC4 (5-fold, 10-fold elsewhere in the source)
Description: Finally, we tested whether binding of BRCA2 Ex14 protects DMC1-ssDNA nucleoprotein filaments from BRC4-mediated disruption (Fig. 3c). […] Further, whilst the core PhePP interaction site is sufficient to stimulate DMC1-ssDNA nucleoprotein filament formation, surrounding amino-acids that are present within Ex14 (but not Ex14-Tr) are necessary to super-shift filaments and confer protection from BRC4-mediated disruption.
as §1, with “KCl.” for “KCl. For RAD51, reaction buffer is 50 mM TEA (triethanolamine), 2 mM ATP, 0.5 mM MgCl2, 2 mM DTT. For assays requiring incomplete nucleoprotein filament assembly, the reaction buffer consisted of 50 mM TAE (tris, acetate, EDTA) pH 7.5, 2 mM ATP, 2 mM MgCl2, 2 mM DTT. In nucleoprotein formation stimulation assays or supershift experiments, BRCA2Ex14 or BRCA2Ex14-AAA were added for a further 30 min at 4 °C.”

RAD51-ssDNA filaments [3] = test: EMSA, protection of RAD51-ssDNA filaments from BRC4-mediated disruption (random sequence ssDNA); assay type: biochemical; conditions: 100-nt random ssDNA; 10-fold excess of Ex27
Description: as §1

DMC1;BRCA2 Ex14-Tr = molecular target: T3, DMC1;BRCA2 Ex14-Tr; test: EMSA; TAE + Ex14-Tr; mostly stimulated filament formation; DMC1: 25 mM TEA (triethanolamine) pH 7.5, 200 mM KCl, 1 mM ATP, 2 mM MgCl2, 0.1 mg/ml BSA, 2 mM DTT, or 50 mM TAE pH 7.5, 2 mM ATP, 2 mM MgCl2, 2 mM DTT; RAD51: 50 mM TEA, 2 mM ATP, 0.5 mM MgCl2, 2 mM DTT; all 4 C, agarose gel in 0.5x TAE; conditions: tags: His6 removed by TEV;; label: 5'-FAM; single strand
RAD51;BRCA2 Ex27 = RAD51;BRCA2 Ex27 (Homo sapiens?;Homo sapiens?, UniProt Q06609;P51587 1-339;3270-3315, |); test: EMSA, BRC4 protection; 10-fold excess Ex27 + BRC4; protected, less complete than on poly(dT); DMC1: 25 mM TEA (triethanolamine) pH 7.5, 200 mM KCl, 1 mM ATP, 2 mM MgCl2, 0.1 mg/ml BSA, 2 mM DTT, or 50 mM TAE pH 7.5, 2 mM ATP, 2 mM MgCl2, 2 mM DTT; RAD51: 50 mM TEA, 2 mM ATP, 0.5 mM MgCl2, 2 mM DTT; all 4 C, agarose gel in 0.5x TAE; conditions: tags: ;; label: 5'-FAM; single strand
DMC1;BRCA2 Ex14 = molecular target: T4, DMC1;BRCA2 Ex14; test: EMSA, BRC4 protection; TEA + KCl; 110 µM Ex14, 10-fold excess BRC4, protected; DMC1: 25 mM TEA (triethanolamine) pH 7.5, 200 mM KCl, 1 mM ATP, 2 mM MgCl2, 0.1 mg/ml BSA, 2 mM DTT, or 50 mM TAE pH 7.5, 2 mM ATP, 2 mM MgCl2, 2 mM DTT; RAD51: 50 mM TEA, 2 mM ATP, 0.5 mM MgCl2, 2 mM DTT; all 4 C, agarose gel in 0.5x TAE; conditions: protein: recombinant;recombinant; tags: His6 removed by TEV;His6-MBP removed by TEV; label: 5'-FAM; single strand
DMC1 = molecular target: T5, DMC1; test: EMSA; TEA + 200 mM KCl, 1 mM ATP, 2 mM Mg2+; largely complete at 3 nt per protomer (11 µM DMC1); DMC1: 25 mM TEA (triethanolamine) pH 7.5, 200 mM KCl, 1 mM ATP, 2 mM MgCl2, 0.1 mg/ml BSA, 2 mM DTT, or 50 mM TAE pH 7.5, 2 mM ATP, 2 mM MgCl2, 2 mM DTT; RAD51: 50 mM TEA, 2 mM ATP, 0.5 mM MgCl2, 2 mM DTT; all 4 C, agarose gel in 0.5x TAE; conditions: protein: recombinant; tags: His6 removed by TEV; chain copies: 8; label: 5'-FAM; single strand

Molecule	disruption of RAD51 L180E-ssDNA filaments [1]	binding in pull-down (DMC1 ΔN F85E)	binding in pull-down (DMC1 ΔN)	binding in pull-down (DMC1 ΔN loop mutant)	disruption of RAD51-ssDNA filaments (RAD51-ssDNA filaments [2])	binding in pull-down (DMC1 ΔN V179E)	disruption of DMC1-ssDNA filaments (DMC1-ssDNA filaments)	protection of RAD51-ssDNA filaments from BRC4-mediated disruption (RAD51-ssDNA filaments [3])	binding result (DMC1;BRCA2 Ex14-Tr)	binding result (RAD51;BRCA2 Ex27)	binding result (DMC1;BRCA2 Ex14)	binding result (DMC1)
BRC4: BRCA2 BRC repeat 4 peptide, amino acids 1519-1551 (PTLLGFHTASGKKVKIAKESLDKVKNLFDEKEQ; not fully specified; left off: His6, end not stated, state not stated | MBP, end not stated, kept) [reference compound]	underwent similar disruption	retained binding	bind	retained its interaction	disrupted	retained binding	completely disrupted	partially disrupt filaments				
100-nt random-sequence ssDNA (ssDNA) DNA: AATTCTCATTTTACTTACCGGACGCTATTAGCAGTGGGTGAGCAAAAACAGGAAGGCAAAATGCCGCAAAAAAGGGAATAAGGGCGACACGGAAATGTTG									binds	binds	binds	binds
